From patent publication US10751339B2, “Substituted aminopyrimidine compounds and methods of use” (SUNSHINE LAKE PHARMA CO., LTD., priority 2018, dated 2020)
Blank lines part the entries; values can stand above or below the compound they belong to.

How the values were obtained:
PI3K (p110α/p85α) (h) = PI3K (p110α/p85α) (h) (Homo sapiens (Human), UniProt P42336); assay: PI3K (p110α/p85α) (h) non-radioactive HTRF kinase assay; assay type: biochemical
Method: (§1) PI3K (p110α/p85α) (h) is incubated in assay buffer containing 10 μM phosphatidylinositol 4,5-bisphosphate and MgATP (concentration as required). The reaction is initiated by the addition of the ATP solution. After incubation for 30 minutes at room temperature, the reaction is stopped by the addition of stop solution containing EDTA and biotinylated phosphatidylinositol-3,4,5-trisphosphate. Finally, detection buffer is added, which contains europium-labelled anti-GST monoclonal antibody, GST-tagged GRP1 PH domain and streptavidin allophycocyanin. The plate is then read in timeresolved fluorescence mode and the homogenous time-resolved fluorescence (HTRF) signal is determined according to the formula HTRF=10000×(Em665 nm/Em620 nm).
(§2) The kinase assays described herein were performed at Millipore UK Ltd, Dundee Technology Park, Dundee DD2 1SW, UK.

PI3K (p110β/p85α) (h) = PI3K (p110β/p85α) (h) (Homo sapiens (Human), UniProt P42338); assay: PI3K (p110β/p85α) (h) non-radioactive HTRF kinase assay; assay type: biochemical
PI3K (p110β/p85α) (h), sequence (P42338 whole entry): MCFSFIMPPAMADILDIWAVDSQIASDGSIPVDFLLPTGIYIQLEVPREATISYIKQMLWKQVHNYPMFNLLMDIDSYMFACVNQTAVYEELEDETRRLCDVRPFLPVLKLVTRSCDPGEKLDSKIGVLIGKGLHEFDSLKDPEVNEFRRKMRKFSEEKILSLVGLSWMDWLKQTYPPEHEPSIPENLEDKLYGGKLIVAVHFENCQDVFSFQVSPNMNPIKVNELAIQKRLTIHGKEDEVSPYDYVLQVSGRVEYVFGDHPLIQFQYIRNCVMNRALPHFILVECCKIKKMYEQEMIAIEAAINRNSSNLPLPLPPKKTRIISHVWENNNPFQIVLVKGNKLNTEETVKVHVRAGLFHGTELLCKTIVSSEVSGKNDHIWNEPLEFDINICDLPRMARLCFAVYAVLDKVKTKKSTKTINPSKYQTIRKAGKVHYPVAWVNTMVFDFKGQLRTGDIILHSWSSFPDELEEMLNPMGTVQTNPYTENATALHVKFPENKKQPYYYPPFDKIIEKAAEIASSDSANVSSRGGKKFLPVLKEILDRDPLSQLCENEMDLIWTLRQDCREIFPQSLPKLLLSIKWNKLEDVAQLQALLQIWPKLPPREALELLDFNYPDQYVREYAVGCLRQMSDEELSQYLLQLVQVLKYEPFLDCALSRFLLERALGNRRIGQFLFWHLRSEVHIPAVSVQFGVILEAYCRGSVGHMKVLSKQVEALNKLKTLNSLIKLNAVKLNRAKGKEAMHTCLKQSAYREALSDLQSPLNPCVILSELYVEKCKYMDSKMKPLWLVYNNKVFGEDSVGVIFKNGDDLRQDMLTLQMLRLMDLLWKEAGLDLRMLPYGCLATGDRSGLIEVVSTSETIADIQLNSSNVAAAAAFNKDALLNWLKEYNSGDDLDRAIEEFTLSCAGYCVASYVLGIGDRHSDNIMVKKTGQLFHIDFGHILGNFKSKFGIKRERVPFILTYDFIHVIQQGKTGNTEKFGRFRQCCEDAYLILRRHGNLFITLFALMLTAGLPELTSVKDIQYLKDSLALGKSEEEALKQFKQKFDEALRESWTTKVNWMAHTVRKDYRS
PI3K (p110β/p85α) (h), sequence (P27986 whole entry partner): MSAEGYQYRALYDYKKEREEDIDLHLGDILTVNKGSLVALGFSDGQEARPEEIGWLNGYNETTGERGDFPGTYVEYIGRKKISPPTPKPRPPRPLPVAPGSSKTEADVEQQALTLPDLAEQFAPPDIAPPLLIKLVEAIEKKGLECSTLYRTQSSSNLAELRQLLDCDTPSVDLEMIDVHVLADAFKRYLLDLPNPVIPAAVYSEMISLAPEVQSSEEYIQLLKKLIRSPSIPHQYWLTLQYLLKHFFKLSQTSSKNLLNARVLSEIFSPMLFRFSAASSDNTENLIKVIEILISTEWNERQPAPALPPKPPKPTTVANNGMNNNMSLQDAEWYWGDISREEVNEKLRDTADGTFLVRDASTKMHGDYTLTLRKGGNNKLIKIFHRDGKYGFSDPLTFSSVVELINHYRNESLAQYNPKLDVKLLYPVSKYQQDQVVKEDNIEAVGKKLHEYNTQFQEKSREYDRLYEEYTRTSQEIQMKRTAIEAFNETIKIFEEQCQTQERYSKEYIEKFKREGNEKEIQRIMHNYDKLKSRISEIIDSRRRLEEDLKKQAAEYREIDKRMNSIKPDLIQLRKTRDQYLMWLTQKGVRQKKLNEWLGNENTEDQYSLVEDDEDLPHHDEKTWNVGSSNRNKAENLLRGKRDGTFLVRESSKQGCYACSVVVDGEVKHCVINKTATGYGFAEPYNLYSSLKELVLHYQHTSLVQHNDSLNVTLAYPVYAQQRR
Method: as §1, with “(p110β/p85α)” for “(p110α/p85α)”, “phosphatidylinositol-4,5-bisphosphate” for “phosphatidylinositol 4,5-bisphosphate”, “MgATP mix.” for “ATP solution.”, “streptavidin-allophycocyanin.” for “streptavidin allophycocyanin.”
as §2

PI3K (p110δ/p85α) (h) = PI3K (p110δ/p85α) (h) (Homo sapiens (Human), UniProt O00329); assay: PI3K (p110δ/p85α) (h) non-radioactive HTRF kinase assay; assay type: biochemical
PI3K (p110δ/p85α) (h), sequence (O00329 whole entry): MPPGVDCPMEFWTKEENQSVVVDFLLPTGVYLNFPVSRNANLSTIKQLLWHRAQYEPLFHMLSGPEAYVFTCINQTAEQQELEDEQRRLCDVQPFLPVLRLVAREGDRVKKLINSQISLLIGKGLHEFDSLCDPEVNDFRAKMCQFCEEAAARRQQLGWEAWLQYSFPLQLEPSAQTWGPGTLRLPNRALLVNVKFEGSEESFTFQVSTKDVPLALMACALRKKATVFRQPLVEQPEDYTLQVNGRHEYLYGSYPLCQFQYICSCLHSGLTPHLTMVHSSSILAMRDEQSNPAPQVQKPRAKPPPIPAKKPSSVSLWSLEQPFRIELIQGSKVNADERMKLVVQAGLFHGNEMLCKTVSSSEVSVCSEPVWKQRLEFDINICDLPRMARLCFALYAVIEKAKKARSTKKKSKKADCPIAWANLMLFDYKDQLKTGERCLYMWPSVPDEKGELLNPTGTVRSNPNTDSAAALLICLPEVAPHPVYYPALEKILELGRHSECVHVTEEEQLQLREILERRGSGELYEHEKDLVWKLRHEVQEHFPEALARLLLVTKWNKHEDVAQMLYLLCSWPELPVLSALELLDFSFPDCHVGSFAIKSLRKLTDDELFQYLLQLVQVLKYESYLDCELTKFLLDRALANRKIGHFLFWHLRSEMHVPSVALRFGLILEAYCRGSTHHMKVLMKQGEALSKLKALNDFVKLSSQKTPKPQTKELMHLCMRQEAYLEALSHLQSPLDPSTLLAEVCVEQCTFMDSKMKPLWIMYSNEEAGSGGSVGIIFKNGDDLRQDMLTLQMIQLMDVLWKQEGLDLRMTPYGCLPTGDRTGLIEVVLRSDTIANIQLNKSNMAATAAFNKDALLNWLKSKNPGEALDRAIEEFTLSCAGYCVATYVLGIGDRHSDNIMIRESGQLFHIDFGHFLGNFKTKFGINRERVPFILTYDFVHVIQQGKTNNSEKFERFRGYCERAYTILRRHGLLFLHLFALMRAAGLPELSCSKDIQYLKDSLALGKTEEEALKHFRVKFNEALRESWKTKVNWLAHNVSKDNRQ
PI3K (p110δ/p85α) (h), sequence (P27986 whole entry partner): as the sequence (P27986 whole entry partner) above
Method: as §1, with “(p110δ/p85α)” for “(p110α/p85α)”, “phosphatidylinositol-4, 5-bisphosphate” for “phosphatidylinositol 4,5-bisphosphate”, “MgATP mix.” for “ATP solution.”, “streptavidin-allophycocyanin.” for “streptavidin allophycocyanin.”
as §2

PI3K (p120γ) (h) = PI3K (p120γ) (h) (Homo sapiens (Human), UniProt P48736); assay: PI3K (p120γ) (h) non-radioactive HTRF kinase assay; assay type: biochemical
Method: as §1, with “(p120γ)” for “(p110α/p85α)”, “phosphatidylinositol-4, 5-bisphosphate” for “phosphatidylinositol 4,5-bisphosphate”, “MgATP mix.” for “ATP solution.”, “streptavidin-allophycocyanin.” for “streptavidin allophycocyanin.”
as §2

PI3K-α (SKOV3) = assay: p-AKT HTRF assay, PI3K-α in SKOV3 cells; assay type: cell-based; conditions: Homo sapiens, SK-OV-3
Method: (§3) Cells were incubated at 37° C. in a 5% CO2 atmosphere overnight. […] Medium was then aspirated and 50 μL/well of lysis buffer was added. Plates were shaked for 45 minutes at room temperature and then 16 ul/well of lysate was transferred to 384-well plate. 4 ul/well of premixed antibody was added to the wells. The plate was centrifuged at 1000 rpm at RT for 1 minute and then incubated for 4 hours at 22° C., and Phospho-AKT (ser473) Kit was used for detection.

PI3K-β (786-O) = assay: p-AKT HTRF assay, PI3K-β in 786-O cells; assay type: cell-based; conditions: Homo sapiens, 786-0
Method: as §3

PI3K-δ (RAJI) = assay: p-AKT HTRF assay, PI3K-δ in RAJI cells stimulated with anti-IgM; assay type: cell-based; conditions: anti-human IgM stimulation
Method: as §3

PI3K-γ (RAW264.7) = assay: p-AKT HTRF assay, PI3K-γ in RAW 264.7 cells stimulated with C5a; assay type: cell-based, murine; conditions: Mus musculus; RAW264.7 cells, C5a stimulation
Method: as §3

hERG channels = hERG channels (Homo sapiens (Human), UniProt Q12809); assay: hERG assay, automated QPatch procedure; assay type: cell-based
hERG channels, sequence (Q12809 whole entry): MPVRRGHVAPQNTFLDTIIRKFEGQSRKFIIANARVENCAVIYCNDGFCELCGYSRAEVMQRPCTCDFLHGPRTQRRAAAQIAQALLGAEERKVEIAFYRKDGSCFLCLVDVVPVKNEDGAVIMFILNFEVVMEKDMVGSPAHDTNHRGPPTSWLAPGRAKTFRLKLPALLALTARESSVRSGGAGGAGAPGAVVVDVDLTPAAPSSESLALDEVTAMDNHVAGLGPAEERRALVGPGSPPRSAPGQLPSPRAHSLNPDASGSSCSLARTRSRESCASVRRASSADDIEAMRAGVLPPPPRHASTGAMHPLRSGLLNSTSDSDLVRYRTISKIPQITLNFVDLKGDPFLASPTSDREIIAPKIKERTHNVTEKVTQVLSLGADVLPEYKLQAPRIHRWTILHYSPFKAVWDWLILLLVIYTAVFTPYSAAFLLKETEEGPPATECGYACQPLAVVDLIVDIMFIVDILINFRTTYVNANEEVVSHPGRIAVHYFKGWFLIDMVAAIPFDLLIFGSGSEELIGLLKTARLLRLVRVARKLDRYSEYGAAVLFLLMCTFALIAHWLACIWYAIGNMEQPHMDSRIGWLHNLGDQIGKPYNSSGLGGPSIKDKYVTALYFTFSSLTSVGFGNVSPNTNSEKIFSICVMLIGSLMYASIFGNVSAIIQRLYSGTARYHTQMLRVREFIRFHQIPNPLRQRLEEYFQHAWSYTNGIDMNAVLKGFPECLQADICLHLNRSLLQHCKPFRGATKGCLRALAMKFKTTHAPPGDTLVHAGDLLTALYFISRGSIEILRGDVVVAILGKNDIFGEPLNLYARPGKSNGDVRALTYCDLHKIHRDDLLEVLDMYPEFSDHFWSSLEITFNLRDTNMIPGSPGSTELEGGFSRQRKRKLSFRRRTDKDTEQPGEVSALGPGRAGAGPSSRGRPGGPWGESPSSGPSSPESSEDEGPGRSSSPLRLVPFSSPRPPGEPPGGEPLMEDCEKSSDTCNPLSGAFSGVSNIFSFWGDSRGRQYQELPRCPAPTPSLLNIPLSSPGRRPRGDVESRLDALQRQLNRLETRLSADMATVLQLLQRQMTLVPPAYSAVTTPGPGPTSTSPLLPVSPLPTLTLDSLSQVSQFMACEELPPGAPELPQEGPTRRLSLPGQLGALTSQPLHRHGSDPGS
Text: Only stable cells with recording parameters above threshold were allowed to enter the drug application procedure.

[1] = tested on: indolent B cell malignancies; conditions: Phase I, subset of patients with indolent B cell malignancies; cited from earlier work
[2] = tested on: mouse model of rheumatoid arthritis; conditions: in vivo; cited from earlier work
[3] = tested on: model of systemic lupus erythematosis; conditions: in vivo; cited from earlier work

IC50 (PI3K (p110α/p85α) (h)): 0.121 µM
IC50 (PI3K (p110β/p85α) (h)): 0.061 µM
IC50 (PI3K (p110δ/p85α) (h)): 0.01 µM
IC50 (PI3K (p120γ) (h)): 0.026 µM
IC50 (PI3K-α (SKOV3)): 0.305 µM
IC50 (PI3K-β (786-O)): 0.0344 µM
IC50 (PI3K-δ (RAJI)): 0.00052 µM
IC50 (PI3K-γ (RAW264.7)): 0.0226 µM
SMILES: CC#Cc1cccc2cc([C@H](C)Nc3ncnc(N)c3-c3nc(C)no3)n(-c3ccccc3)c(=O)c12 [Example 16, (S)-3-(1-((6-amino-5-(3-methyl-1,2,4-oxadiazol-5-yl)pyrimidin-4-yl)amino)ethyl)-2-phenyl-8-(prop-1-yn-1-yl)isoquinolin-1(2H)-one]
IC50 (hERG channels): > 30 µM

SMILES: CC[C@H](Nc1ncnc2[nH]cnc12)c1nc2cccc(F)c2c(=O)n1-c1ccccc1 [CAL-101, idelalisib]
clinical response [1]: dramatic and durable responses

SMILES: O=C1NC(=O)/C(=C\c2ccc3nccnc3c2)S1 [AS 605240]
efficacy in a mouse model of rheumatoid arthritis [2]: efficacious
effect on onset of disease in a model of systemic lupus erythematosis [3]: delay onset of disease
